Laboratory results as given in patent publication US20160368872A1, “COMPOUNDS AND METHODS FOR TREATING CANCERS” (HEALTH RESEARCH, INC., priority 2013, published 2016).

Columns and labels:
Assay in all cases: inhibition of growth of cell lines (IC50 categories)
Type in all cases: cell-based
Hela = details: Homo sapiens
Method: (§1) This example provides a table (below) of the compounds of the present disclosure and their activity towards four different cell lines (i.e., CWR22R, Hela, PC3, and MDA-MB-231). The IC50 for inhibition of growth is divided into 4 categories: A<1 μM, B 1-5 μM, […], D>20 μM.
(§2) All compounds were tested for toxicity using 4 cells lines, target cells-CWR22R and non-target cells, Hela, PC3 and MDA-MB-231 (FIGS. 1A-F).

CWR22R = details: Homo sapiens, 22Rv1
Method: as §1, §2

MDA-MB-231 = details: Homo sapiens
Method: as §1, §2

PC3 = details: Homo sapiens, PC-3
Method: as §1, §2

Structure (SMILES)	IC50 (Hela)	IC50 (CWR22R)	IC50 (MDA-MB-231)	IC50 (PC3)
CCCn1c2ccccc2c2c3c(ccc21)C(=O)CC3 [Compound 1-1, 6-Propyl-1,2-dihydro-6H-cyclopenta[c]carbazol-3-one]	> 20 µM	< 1 µM	> 20 µM	> 20 µM
Cn1c2ccccc2c2c3c(ccc21)C(=O)CC3 [Compound 1-3]	5 to 20 µM	5 to 20 µM	5 to 20 µM	5 to 20 µM
CCCn1c2ccccc2c2c3c(ccc21)C(=O)CCC3 [Compound 1-4]	> 20 µM	< 1 µM	> 20 µM	> 20 µM
O=C1CCCc2c1ccc1c2c2ccccc2n1CCCF [Compound 1-5]	> 20 µM	< 1 µM	> 20 µM	> 20 µM
CCCn1c2ccccc2c2c3c(ccc21)C(=O)CO3 [Compound 1-6]	> 20 µM	< 1 µM	> 20 µM	> 20 µM
O=C1COc2c1ccc1c2c2ccccc2n1CCCF [Compound 1-7]	> 20 µM	< 1 µM	> 20 µM	> 20 µM
CCCn1c2ccccc2c2c3c(ccc21)C(=O)CCO3 [Compound 1-8]	> 20 µM	< 1 µM	> 20 µM	> 20 µM
O=C1CCOc2c1ccc1c2c2ccccc2n1CCCF [Compound 1-9]	> 20 µM	< 1 µM	> 20 µM	> 20 µM
CCCn1c2ccccc2c2c3c(ccc21)C(=O)NC3 [Compound 1-10, 6-propyl-1,2-dihydro-6H-pyrrolo[3,4-c]carbazol-3-one]	> 20 µM	< 1 µM	> 20 µM	> 20 µM
O=C1NCc2c1ccc1c2c2ccccc2n1CCCF [Compound 1-11]	> 20 µM	< 1 µM	> 20 µM	> 20 µM
O=C1Cc2ccc3c(c2CN1)c1ccccc1n3CCCF [Compound 1-12]	> 20 µM	< 1 µM	> 20 µM	> 20 µM
O=C1CCc2c1ccc1c2c2c(F)cccc2n1CCCF [Compound 1-14]	> 20 µM	< 1 µM	> 20 µM	> 20 µM
CC(=O)c1ccc2c(c1)c1c3c(ccc1n2CCCF)C(=O)CC3 [Compound 1-15]	> 20 µM	1 to 5 µM	> 20 µM	> 20 µM
O=C1CCc2c1ccc1c2c2cc(Br)ccc2n1CCCF [Compound 1-16]	> 20 µM	1 to 5 µM	> 20 µM	> 20 µM
CCCn1c2ccccc2c2c3c(ccc21)C(=O)NCC3 [Compound 2-1, 7-Propyl-2,3-dihydro-1H,7H-pyrido[3,4-c]carbazol-4-one]	> 20 µM	< 1 µM	> 20 µM	> 20 µM
O=C1NCCc2c1ccc1c2c2ccccc2n1CCCF [Compound 2-2]	> 20 µM	< 1 µM	> 20 µM	> 20 µM
O=C1NCCCc2c1ccc1c2c2ccccc2n1CCCF [Compound 2-3]	5 to 20 µM	1 to 5 µM	5 to 20 µM	> 20 µM
O=C1CCCc2c(ccc3c2c2ccccc2n3CCCF)N1 [Compound 2-4]	5 to 20 µM	< 1 µM	> 20 µM	5 to 20 µM
O=C1NCCOc2c1ccc1c2c2ccccc2n1CCCF [Compound 2-5]	> 20 µM	< 1 µM	> 20 µM	> 20 µM
CCCn1c2ccccc2c2c3cc[nH]c(=O)c3ccc21 [Compound 3-1, 7-Propyl-3H,7H-pyrido[3,4-c]carbazol-4-one]	> 20 µM	< 1 µM	> 20 µM	> 20 µM
O=c1[nH]ccc2c1ccc1c2c2ccccc2n1CCCF [Compound 3-2]	> 20 µM	< 1 µM	> 20 µM	> 20 µM
CCCn1c2ccccc2c2c3occc(=O)c3ccc21 [Compound 3-3]	> 20 µM	< 1 µM	5 to 20 µM	> 20 µM
CCCn1c2ccccc2c2c3c(ccc21)C(=O)N(C)C3 [Compound 4-1, 2-Methyl-6-propyl-1,2-dihydro-6H-pyrrolo[3,4-c]carbazol-3-one]	1 to 5 µM	< 1 µM	< 1 µM	> 20 µM
CN1Cc2c(ccc3c2c2ccccc2n3CCCF)C1=O [Compound 4-2]	5 to 20 µM	< 1 µM	1 to 5 µM	> 20 µM
O=c1c2ccc3c(c2ccn1CCO)c1ccccc1n3CCCF [Compound 4-3]	> 20 µM	5 to 20 µM	> 20 µM	> 20 µM

Structure (SMILES)	IC50 (Hela)	IC50 (CWR22R)	IC50 (MDA-MB-231)	IC50 (PC3)
O=c1c2ccc3c(c2ccn1CCN1CCCC1)c1ccccc1n3CCCF [Compound 4-4]	5 to 20 µM	5 to 20 µM	5 to 20 µM	5 to 20 µM
CCCn1c2ccccc2c2c3nc[nH]c(=O)c3ccc21 [Compound 5-1, 7-Propyl-3H-pyrimido[5,4-c]carbazol-4(7H)-one]	> 20 µM	< 1 µM	> 20 µM	
O=c1[nH]cnc2c1ccc1c2c2ccccc2n1CCCF [Compound 5-2]	> 20 µM	< 1 µM	> 20 µM	> 20 µM
O=c1[nH]ncc2c1ccc1c2c2ccccc2n1CCCF [Compound 5-3]	> 20 µM	< 1 µM	> 20 µM	> 20 µM
CCCn1c2ccccc2c2c3c(ccc21)CC(=O)N3C [Compound 6-1, 1-Methyl-6-propyl-3,6-dihydro-1H-pyrrolo[3,2-c]carbazol-2-one]	> 20 µM	< 1 µM	> 20 µM	> 20 µM
CCCn1c2ccccc2c2c3c(ccc21)C(O)CC3 (stereo not drawn) [Compound 7-1, 6-Propyl-1,2,3,6-tetrahydro-cyclopenta[c]carbazol-3-ol]	5 to 20 µM	< 1 µM	5 to 20 µM	5 to 20 µM
CCCn1c2ccccc2c2c3c(ccc21)CCC3 [Compound 7-2, 6-Propyl-1,2,3,6-tetrahydro-cyclopenta[c]carbazole]	> 20 µM	1 to 5 µM	> 20 µM	> 20 µM
O=c1[nH]c2ccc3c(c4ccccc4n3CCCF)c2o1 [Compound 8-2]	5 to 20 µM	< 1 µM	5 to 20 µM	> 20 µM
N#Cc1cccc2c1c1c3cc[nH]c(=O)c3ccc1n2CCCF [Compound 8-3]	> 20 µM	1 to 5 µM	> 20 µM	> 20 µM
NC(=O)c1cccc2c1c1c3cc[nH]c(=O)c3ccc1n2CCCF [Compound 8-4]	> 20 µM	5 to 20 µM	> 20 µM	> 20 µM
CCCn1c2cccnc2c2c3c(ccc21)C(=O)CC3 [Compound 10-1, 6-Propyl-1,2-dihydro-6H-6,10-diazacyclopenta[c]fluoren-3-one]	> 20 µM	1 to 5 µM	5 to 20 µM	5 to 20 µM
O=C1CCc2c1ccc1c2c2ncccc2n1CCCF [Compound 10-2]	> 20 µM	< 1 µM	5 to 20 µM	5 to 20 µM
CCCn1c2cccnc2c2c3c(ccc21)C(=O)NC3 [Compound 10-5]	> 20 µM	1 to 5 µM	> 20 µM	> 20 µM
O=C1NCc2c1ccc1c2c2ncccc2n1CCCF [Compound 10-6, 6-(3-fluoropropyl)-1,2-dihydro-6H-2,6,10-triazacyclopenta[c]fluoren-3-one]	> 20 µM	< 1 µM	> 20 µM	> 20 µM
Cn1ncc2c(ccc3c2c2ncccc2n3CCCF)c1=O [Compound 10-7]	> 20 µM	< 1 µM	5 to 20 µM	> 20 µM
CCCn1c2cccnc2c2c3ccn(C)c(=O)c3ccc21 [Compound 10-9]	> 20 µM	< 1 µM	> 20 µM	> 20 µM
Cn1ccc2c(ccc3c2c2ncccc2n3CCCF)c1=O [Compound 10-10]	> 20 µM	< 1 µM	> 20 µM	> 20 µM
CCCn1c2cccnc2c2c3c(ccc21)C(=O)NCC3 [Compound 11-1, 7-Propyl-1,2,3,7-tetrahydro-3,7,11-triazabenzo[c]fluoren-4-one]	> 20 µM	5 to 20 µM	> 20 µM	> 20 µM
O=C1NCCc2c1ccc1c2c2ncccc2n1CCCF [Compound 11-2]	> 20 µM	< 1 µM	> 20 µM	> 20 µM
O=C1NCCOc2c1ccc1c2c2ncccc2n1CCCF [Compound 11-3]	> 20 µM	1 to 5 µM	> 20 µM	> 20 µM
CCCn1c2cccnc2c2c3cc[nH]c(=O)c3ccc21 [Compound 12-1, 7-Propyl-3,7-dihydro-3,7,11-triazabenzo[c]fluoren-4-one]	> 20 µM	5 to 20 µM	> 20 µM	> 20 µM
O=c1[nH]ccc2c1ccc1c2c2ncccc2n1CCCF [Compound 13-1, 7-(3-Fluoropropyl)-3,7-dihydro-3,7,11-triaza-benzo[c]fluoren-4-one]	> 20 µM	< 1 µM	> 20 µM	> 20 µM
O=C1COc2c(ccc3c2c2ncccc2n3CCCF)N1 [Compound 13-2]	> 20 µM	5 to 20 µM	> 20 µM	> 20 µM
CN1Cc2c(ccc3c2c2ncccc2n3CCCF)C1=O [Compound 14-1, 6-(3-Fluoropropyl)-2-methyl-1,2-dihydro-6H-2,6,10-triazacyclopenta[c]fluoren-3-one]	> 20 µM	< 1 µM	5 to 20 µM	> 20 µM
